# From the supplement of paper PMC11061612
# Legend:
# SG3199 = compound: CC1=CN2[C@@H](C1)C=NC3=CC(=C(C=C3C2=O)OC)OCCCCCOC4=C(C=C5C(=C4)N=C[C@@H]6CC(=CN6C5=O)C)OC [SG3199]; conditions: max 0.001 µM
# Procedure, shortened: (§1)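 In 1536-well plates, cancer cell lines in 7.5 μl DMEM/F12 or RPMI with 10% FBS spent 24 hours at 37°C and 5% CO2 and were then dosed for 72 hours with final DMSO typically 0.2%. Viability was read by CellTiter-Glo 2.0 luminescence and scaled between blank-well and DMSO-well means. The single-agent IC50 was fitted from dose responses using a logistic curve in a non-linear mixed effects model, and that logistic curve had two parameters.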
# Palbociclib = compound: CC(=O)c1c(C)c2cnc(Nc3ccc(N4CCNCC4)cn3)nc2n(C2CCCC2)c1=O [Palbociclib]; conditions: max 10 µM
# Procedure, shortened: as §1
# AZD6738 = compound: C[C@@H]1COCCN1C2=NC(=NC(=C2)C3(CC3)[S@](=N)(=O)C)C4=C5C=CNC5=NC=C4 [AZD6738]; conditions: max 10 µM
# Procedure, shortened: as §1
# AZD5991 = compound: Cc1c2c(nn1C)CSCc1cc(n(C)n1)CSc1cc(c3ccccc3c1)OCCCc1c(C(=O)O)n(C)c3c-2c(Cl)ccc13 [AZD5991]; conditions: max 1 µM
# Procedure, shortened: as §1
# AZD4320 = compound: CN(CC[C@H](CSC1=CC=CC=C1)NC2=C(C=C(C=C2)S(=O)(=O)NC(=O)C3=CC=C(C=C3)N4CCC(CC4)[C@H](C5=CC=CC=C5C6=CC=C(C=C6)Cl)O)S(=O)(=O)C(F)(F)F)CCO [AZD4320]; conditions: max 1 µM
# Procedure, shortened: as §1
# Gefitinib = compound: COc1cc2ncnc(Nc3ccc(F)c(Cl)c3)c2cc1OCCCN1CCOCC1 [Gefitinib]; conditions: max 10 µM
# Procedure, shortened: as §1
# Dasatinib = compound: CC1=C(C(=CC=C1)Cl)NC(=O)C2=CN=C(S2)NC3=CC(=NC(=N3)C)N4CCN(CC4)CCO [Dasatinib]; conditions: max 2 µM
# Procedure, shortened: as §1
# AZD1390 = compound: CC(C)n1c(=O)n(C)c2cnc3cc(F)c(-c4ccc(OCCCN5CCCCC5)nc4)cc3c21 [AZD1390]; conditions: max 0.3 µM
# Procedure, shortened: as §1
# AZD5153 = compound: COc1nnc2ccc(N3CCC(c4ccc(OCCN5CCN(C)C(=O)[C@H]5C)cc4)CC3)nn12 [AZD5153]; conditions: max 1 µM
# Procedure, shortened: as §1
# MK-2206 = compound: NC1(c2ccc(-c3nc4ccn5c(=O)[nH]nc5c4cc3-c3ccccc3)cc2)CCC1 [MK-2206]; conditions: max 10 µM
# Procedure, shortened: as §1
# Doxorubicin = compound: COc1cccc2c1C(=O)c1c(O)c3c(c(O)c1C2=O)C[C@@](O)(C(=O)CO)C[C@@H]3O[C@H]1C[C@H](N)[C@H](O)[C@H](C)O1 [Doxorubicin]; conditions: max 1 µM
# Procedure, shortened: as §1
# Taselisib = compound: Cc1nc(-c2cn3c(n2)-c2ccc(-c4cnn(C(C)(C)C(N)=O)c4)cc2OCC3)n(C(C)C)n1 [Taselisib]; conditions: max 10 µM
# Procedure, shortened: as §1
# Selumetinib = compound: Cn1cnc2c(F)c(Nc3ccc(Br)cc3Cl)c(C(=O)NOCCO)cc21 [Selumetinib]; conditions: max 10 µM
# Procedure, shortened: as §1
# Venetoclax = compound: CC1(C)CCC(CN2CCN(c3ccc(C(=O)NS(=O)(=O)c4ccc(NCC5CCOCC5)c([N+](=O)[O-])c4)c(Oc4cnc5[nH]ccc5c4)c3)CC2)=C(c2ccc(Cl)cc2)C1 [Venetoclax]; conditions: max 1 µM
# Procedure, shortened: as §1
# AZD7648 = compound: Cc1cc2ncnn2cc1Nc1ncc2c(n1)n(C1CCOCC1)c(=O)n2C [AZD7648]; conditions: max 10 µM
# Procedure, shortened: as §1
# Capivasertib = compound: C1CN(CCC1(C(=O)N[C@@H](CCO)C2=CC=C(C=C2)Cl)N)C3=NC=NC4=C3C=CN4 [Capivasertib]; conditions: max 10 µM
# Procedure, shortened: as §1
# Trametinib = compound: CC(=O)Nc1cccc(-n2c(=O)n(C3CC3)c(=O)c3c(Nc4ccc(I)cc4F)n(C)c(=O)c(C)c32)c1 [Trametinib]; conditions: max 1 µM
# Procedure, shortened: as §1
# Prexasertib = compound: COc1cccc(OCCCN)c1-c1cc(Nc2cnc(C#N)cn2)n[nH]1 [Prexasertib]; conditions: max 1 µM
# Procedure, shortened: as §1
# Savolitinib = compound: C[C@@H](c1ccc2nccn2c1)n1nnc2ncc(-c3cnn(C)c3)nc21 [Savolitinib]; conditions: max 1 µM
# Procedure, shortened: as §1
# SN-38 = compound: CCc1c2c(nc3ccc(O)cc13)-c1cc3c(c(=O)n1C2)COC(=O)[C@]3(O)CC [SN-38]; conditions: max 0.3 µM
# Procedure, shortened: as §1
# Lapatinib = compound: CS(=O)(=O)CCNCc1ccc(-c2ccc3ncnc(Nc4ccc(OCc5cccc(F)c5)c(Cl)c4)c3c2)o1 [Lapatinib]; conditions: max 10 µM
# Procedure, shortened: as §1
# Crizotinib = compound: C[C@@H](Oc1cc(-c2cnn(C3CCNCC3)c2)cnc1N)c1c(Cl)ccc(F)c1Cl [Crizotinib]; conditions: max 10 µM
# Procedure, shortened: as §1
# AZD8186 = compound: C[C@@H](Nc1cc(F)cc(F)c1)c1cc(C(=O)N(C)C)cc2c(=O)cc(N3CCOCC3)oc12 [AZD8186]; conditions: max 3 µM
# Procedure, shortened: as §1
# AZD1775 = compound: C=CCn1c(=O)c2cnc(Nc3ccc(N4CCN(C)CC4)cc3)nc2n1-c1cccc(C(C)(C)O)n1 [AZD1775]; conditions: max 3 µM
# Procedure, shortened: as §1
# AZD2811 = compound: CCN(CCO)CCCOc1ccc2c(Nc3cc(CC(=O)Nc4cccc(F)c4)[nH]n3)ncnc2c1 [AZD2811]; conditions: max 1 µM
# Procedure, shortened: as §1
# Olaparib = compound: O=C(c1cc(Cc2n[nH]c(=O)c3ccccc23)ccc1F)N1CCN(C(=O)C2CC2)CC1 [Olaparib]; conditions: max 10 µM
# Procedure, shortened: as §1
# Alisertib = compound: COc1cc(Nc2ncc3c(n2)-c2ccc(Cl)cc2C(c2c(F)cccc2OC)=NC3)ccc1C(=O)O [Alisertib]; conditions: max 10 µM
# Procedure, shortened: as §1
# AZD0156 = compound: CN(C)CCCOc1ccc(-c2ccc3ncc4c(c3c2)n(C2CCOCC2)c(=O)n4C)cn1 [AZD0156]; conditions: max 3 µM
# Procedure, shortened: as §1
Cell Line,"IC50, cell viability 72 h (SG3199) [µM]","IC50, cell viability 72 h (Palbociclib) [µM]","IC50, cell viability 72 h (AZD6738) [µM]","IC50, cell viability 72 h (AZD5991) [µM]","IC50, cell viability 72 h (AZD4320) [µM]","IC50, cell viability 72 h (Gefitinib) [µM]","IC50, cell viability 72 h (Dasatinib) [µM]","IC50, cell viability 72 h (AZD1390) [µM]","IC50, cell viability 72 h (AZD5153) [µM]","IC50, cell viability 72 h (MK-2206) [µM]","IC50, cell viability 72 h (Doxorubicin) [µM]","IC50, cell viability 72 h (Taselisib) [µM]","IC50, cell viability 72 h (Selumetinib) [µM]","IC50, cell viability 72 h (Venetoclax) [µM]","IC50, cell viability 72 h (AZD7648) [µM]","IC50, cell viability 72 h (Capivasertib) [µM]","IC50, cell viability 72 h (Trametinib) [µM]","IC50, cell viability 72 h (Prexasertib) [µM]","IC50, cell viability 72 h (Savolitinib) [µM]","IC50, cell viability 72 h (SN-38) [µM]","IC50, cell viability 72 h (Lapatinib) [µM]","IC50, cell viability 72 h (Crizotinib) [µM]","IC50, cell viability 72 h (AZD8186) [µM]","IC50, cell viability 72 h (AZD1775) [µM]","IC50, cell viability 72 h (AZD2811) [µM]","IC50, cell viability 72 h (Olaparib) [µM]","IC50, cell viability 72 h (Alisertib) [µM]","IC50, cell viability 72 h (AZD0156) [µM]"
HCC1500 (Breast Carcinoma),> 0.001,> 10,> 10,> 1,0.0452,> 10,> 2,> 0.3,> 1,> 10,> 1,> 10,> 10,0.291,> 10,> 10,> 1,> 1,> 1,0.213,> 10,> 10,> 3,2.9,> 1,> 10,> 10,> 3
HCC1937 (Breast Carcinoma),> 0.001,> 10,> 10,> 1,> 1,> 10,> 2,> 0.3,> 1,> 10,> 1,9.15,> 10,> 1,> 10,> 10,> 1,0.318,> 1,> 0.3,> 10,> 10,> 3,0.643,> 1,> 10,> 10,> 3
KOPN-8 (B-Lymphoblastic Leukemia),> 0.001,2.62,0.725,0.0434,0.011,> 10,> 2,> 0.3,0.0285,8.59,0.106,> 10,6.21,0.05,> 10,4.98,0.0369,0.0198,> 1,0.0027,> 10,2.77,> 3,0.314,0.0377,6.85,0.0234,> 3
LC-1-sq (Squamous Cell Lung Carcinoma),> 0.001,> 10,2.13,> 1,> 1,> 10,> 2,> 0.3,0.49,–,> 1,> 10,> 10,> 1,> 10,> 10,> 1,0.0164,> 1,> 0.3,> 10,> 10,> 3,0.294,> 1,> 10,> 10,> 3
NCI-H650 (Lung Adenocarcinoma),> 0.001,> 10,> 10,> 1,> 1,> 10,> 2,> 0.3,> 1,> 10,> 1,> 10,> 10,> 1,> 10,> 10,> 1,0.283,> 1,0.1,> 10,> 10,> 3,2.65,> 1,> 10,> 10,> 3
NCI-H1092 (Small Cell Lung Carcinoma),> 0.001,> 10,> 10,0.819,0.152,> 10,> 2,> 0.3,> 1,> 10,> 1,> 10,> 10,> 1,> 10,> 10,> 1,0.144,> 1,> 0.3,> 10,> 10,> 3,2.94,> 1,> 10,> 10,> 3
NCI-H1838 (Lung Adenocarcinoma),> 0.001,> 10,> 10,> 1,> 1,> 10,> 2,> 0.3,> 1,> 10,> 1,5.86,> 10,> 1,> 10,> 10,> 1,0.212,> 1,> 0.3,> 10,> 10,> 3,2.44,> 1,> 10,> 10,> 3
NCI-H2122 (Lung Adenocarcinoma),> 0.001,1.91,1.14,> 1,> 1,5.67,> 2,> 0.3,0.115,–,> 1,0.373,0.496,> 1,> 10,4.95,0.0138,0.0291,> 1,0.0405,6.23,1.92,> 3,0.547,0.347,> 10,0.065,> 3
OACM5-1 (Esophageal Adenocarcinoma),> 0.001,6.86,9.88,0.0582,> 1,> 10,> 2,> 0.3,0.391,–,0.615,0.418,> 10,> 1,> 10,1.99,> 1,0.134,> 1,0.0464,8.07,4.4,> 3,2.55,> 1,> 10,3.85,> 3
